ChEMBL document CHEMBL4387741, “Optimization of novel reversible Bruton's tyrosine kinase inhibitors identified using Tethering-fragment-based screens” (Bioorg Med Chem, 2019)

Columns and labels:
[1] = molecular target: Ephrin type-A receptor 4 (Homo sapiens) (UniProt P54764); assay: Inhibition of wild-type human partial length EPHA4 (T601 to R897 residues) expressed in bacterial expression system at 1 uM by Kinomescan method relative to control
[2] = molecular target: Protein-tyrosine kinase 6 (Homo sapiens) (UniProt Q13882); assay: Inhibition of wild-type human partial length BRK (L166 to T451 residues) expressed in bacterial expression system at 1 uM by Kinomescan method relative to control
[3] = molecular target: Tyrosine-protein kinase ITK/TSK (Homo sapiens) (UniProt Q08881); assay: Inhibition of wild-type human partial length ITK (R335 to L620 residues) expressed in bacterial expression system at 1 uM by Kinomescan method relative to control
[4] = test system: Tyrosine-protein kinase ABL1 (Homo sapiens), P00519 [T315I]; assay: Inhibition of human phosphorylated ABL1 T315I mutant (S229 to K512 residues) expressed in mammalian expression system at 1 uM by Kinomescan method relative to control
[5] = molecular target: Phosphatidylinositol 3-kinase catalytic subunit type 3 (Homo sapiens) (UniProt Q8NEB9); assay: Inhibition of wild-type human partial length VPS34 (S282 to H879 residues) expressed in mammalian expression system at 1 uM by Kinomescan method relative to control
[6] = molecular target: Calcium/calmodulin-dependent protein kinase type II subunit delta (Homo sapiens) (UniProt Q13557); assay: Inhibition of wild-type human partial length CAMK2D (M1 to E329 residues) expressed in bacterial expression system at 1 uM by Kinomescan method relative to control
[7] = test system: Tyrosine-protein kinase ABL1 (Homo sapiens), P00519 [Q252H]; assay: Inhibition of human non-phosphorylated ABL1 Q252H mutant (S229 to K512 residues) expressed in mammalian expression system at 1 uM by Kinomescan method relative to control
[8] = test system: Leucine-rich repeat serine/threonine-protein kinase 2 (Homo sapiens), Q5S007 [G2019S]; assay: Inhibition of human partial length LRRK2 G2019S mutant (H970 to E2527 residues) expressed in mammalian expression system at 1 uM by Kinomescan method relative to control
[9] = molecular target: Mitogen-activated protein kinase 8 (Homo sapiens) (UniProt P45983); assay: Inhibition of wild-type human full length JNK1 (M1 to Q384 residues) expressed in mammalian expression system at 10 uM by Kinomescan method relative to control
[10] = molecular target: Ribosomal protein S6 kinase alpha-2 (Homo sapiens) (UniProt Q15349); assay: Inhibition of wild-type human partial length C-terminal RSK3 kinase domain 2 (V403 to K700 residues) expressed in bacterial expression system at 10 uM by Kinomescan method relative to control
[11] = molecular target: Phosphatidylinositol 4,5-bisphosphate 3-kinase catalytic subunit alpha isoform (Homo sapiens) (UniProt P42336); assay: Inhibition of wild-type human partial length PIK3CA (R108 to N1068 residues) expressed in mammalian expression system at 10 uM by Kinomescan method relative to control
[12] = molecular target: Ephrin type-A receptor 3 (Homo sapiens) (UniProt P29320); assay: Inhibition of wild-type human partial length EPHA3 (D604 to K889 residues) expressed in bacterial expression system at 10 uM by Kinomescan method relative to control
[13] = molecular target: Serine/threonine-protein kinase D3 (Homo sapiens) (UniProt O94806); assay: Inhibition of wild-type human partial length PRKD3 (S543 to E863 residues) expressed in bacterial expression system at 10 uM by Kinomescan method relative to control
[14] = molecular target: Calcium/calmodulin-dependent protein kinase type II subunit gamma (Homo sapiens) (UniProt Q13555); assay: Inhibition of wild-type human partial length CAMK2G (R9 to A303 residues) expressed in bacterial expression system at 10 uM by Kinomescan method relative to control
[15] = molecular target: Ribosomal protein S6 kinase alpha-3 (Homo sapiens) (UniProt P51812); assay: Inhibition of wild-type human partial length N-terminal RSK2 kinase domain 1 (M1 to D394 residues) expressed in mammalian expression system at 10 uM by Kinomescan method relative to control
[16] = molecular target: Phosphatidylinositol 3-kinase catalytic subunit type 3 (Homo sapiens) (UniProt Q8NEB9); assay: Inhibition of wild-type human partial length VPS34 (S282 to H879 residues) expressed in mammalian expression system at 10 uM by Kinomescan method relative to control
[17] = molecular target: Mitogen-activated protein kinase kinase kinase 13 (Homo sapiens) (UniProt O43283); assay: Inhibition of wild-type human full length LZK (M1 to W966 residues) expressed in mammalian expression system at 10 uM by Kinomescan method relative to control
[18] = molecular target: Ephrin type-B receptor 3 (Homo sapiens) (UniProt P54753); assay: Inhibition of wild-type human partial length EPHB3 (Q599 to T928 residues) expressed in bacterial expression system at 10 uM by Kinomescan method relative to control
[19] = molecular target: Tyrosine-protein kinase HCK (Homo sapiens) (UniProt P08631); assay: Inhibition of wild-type human full length HCK (M22 to P526 residues) expressed in bacterial expression system at 10 uM by Kinomescan method relative to control
[20] = molecular target: Serine/threonine-protein kinase 16 (Homo sapiens) (UniProt O75716); assay: Inhibition of wild-type human partial length STK16 (G11 to I305 residues) expressed in bacterial expression system at 10 uM by Kinomescan method relative to control
[21] = molecular target: Testis-specific serine/threonine-protein kinase 3 (Homo sapiens) (UniProt Q96PN8); assay: Inhibition of wild-type human full length TSSK3 (M1 to T268 residues) expressed in mammalian expression system at 10 uM by Kinomescan method relative to control
[22] = molecular target: MAP kinase-interacting serine/threonine-protein kinase 2 (Homo sapiens) (UniProt Q9HBH9); assay: Inhibition of wild-type human partial length MKNK2 (G63 to S388 residues) expressed in mammalian expression system at 10 uM by Kinomescan method relative to control
[23] = molecular target: Vascular endothelial growth factor receptor 2 (Homo sapiens) (UniProt P35968); assay: Inhibition of wild-type human partial length VEGFR2 (R787 to P1253 residues) expressed in mammalian expression system at 10 uM by Kinomescan method relative to control
[24] = molecular target: Fibroblast growth factor receptor 1 (Homo sapiens) (UniProt P11362); assay: Inhibition of wild-type human partial length FGFR1 (P357 to V669 residues) expressed in bacterial expression system at 10 uM by Kinomescan method relative to control
[25] = molecular target: Cyclin-dependent kinase 11A (Homo sapiens) (UniProt Q9UQ88); assay: Inhibition of wild-type human partial length CDC2L2 (D391 to K730 residues) expressed in bacterial expression system at 10 uM by Kinomescan method relative to control
[26] = molecular target: Serine/threonine-protein kinase PAK 1 (Homo sapiens) (UniProt Q13153); assay: Inhibition of wild-type human partial length PAK1 (S149 to H545 residues) expressed in bacterial expression system at 10 uM by Kinomescan method relative to control
[27] = molecular target: Wee1-like protein kinase (Homo sapiens) (UniProt P30291); assay: Inhibition of wild-type human partial length WEE1 (M291 to K575 residues) expressed in bacterial expression system at 10 uM by Kinomescan method relative to control

Phosphatidylinositol 3-kinase catalytic subunit type 3 (Homo sapiens), sequence (Q8NEB9 whole entry, the tested form may be a part): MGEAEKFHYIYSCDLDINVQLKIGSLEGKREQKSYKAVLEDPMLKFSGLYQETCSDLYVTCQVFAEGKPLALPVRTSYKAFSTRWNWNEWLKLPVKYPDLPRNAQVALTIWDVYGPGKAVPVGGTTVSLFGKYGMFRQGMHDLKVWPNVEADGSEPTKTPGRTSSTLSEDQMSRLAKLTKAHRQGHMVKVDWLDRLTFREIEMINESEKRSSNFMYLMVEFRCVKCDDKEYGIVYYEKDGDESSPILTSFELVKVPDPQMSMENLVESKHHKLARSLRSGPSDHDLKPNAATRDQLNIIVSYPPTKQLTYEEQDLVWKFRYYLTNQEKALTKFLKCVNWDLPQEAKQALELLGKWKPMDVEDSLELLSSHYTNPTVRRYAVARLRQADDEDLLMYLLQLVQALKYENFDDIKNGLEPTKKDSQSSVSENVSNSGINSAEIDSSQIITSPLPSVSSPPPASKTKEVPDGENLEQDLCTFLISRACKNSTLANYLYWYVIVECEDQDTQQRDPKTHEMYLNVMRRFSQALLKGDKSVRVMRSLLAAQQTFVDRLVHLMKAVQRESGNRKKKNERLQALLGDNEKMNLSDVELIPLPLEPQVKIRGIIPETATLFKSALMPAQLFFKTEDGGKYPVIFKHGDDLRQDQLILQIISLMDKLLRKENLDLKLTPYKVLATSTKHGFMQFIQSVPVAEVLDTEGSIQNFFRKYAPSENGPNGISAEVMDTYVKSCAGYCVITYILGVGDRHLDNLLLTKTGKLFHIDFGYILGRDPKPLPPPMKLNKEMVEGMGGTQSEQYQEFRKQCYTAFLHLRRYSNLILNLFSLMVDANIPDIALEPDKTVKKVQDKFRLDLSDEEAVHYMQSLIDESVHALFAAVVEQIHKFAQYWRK
Tyrosine-protein kinase HCK (Homo sapiens), sequence (P08631 2-526 limits assumed): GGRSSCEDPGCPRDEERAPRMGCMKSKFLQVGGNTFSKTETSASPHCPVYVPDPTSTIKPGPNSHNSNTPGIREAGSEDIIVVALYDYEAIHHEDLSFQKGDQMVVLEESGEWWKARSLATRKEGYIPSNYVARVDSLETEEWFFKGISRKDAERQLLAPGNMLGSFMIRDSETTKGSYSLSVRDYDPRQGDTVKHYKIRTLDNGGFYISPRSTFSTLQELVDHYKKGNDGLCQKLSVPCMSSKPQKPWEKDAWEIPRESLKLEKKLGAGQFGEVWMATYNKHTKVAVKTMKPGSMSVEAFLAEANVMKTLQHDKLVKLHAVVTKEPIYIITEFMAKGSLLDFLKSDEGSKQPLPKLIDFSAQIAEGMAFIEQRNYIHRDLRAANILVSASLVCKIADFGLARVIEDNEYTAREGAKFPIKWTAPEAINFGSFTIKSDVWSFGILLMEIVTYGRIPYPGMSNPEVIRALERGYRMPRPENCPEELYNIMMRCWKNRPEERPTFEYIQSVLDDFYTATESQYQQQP
Tyrosine-protein kinase ITK/TSK (Homo sapiens), sequence (Q08881 whole entry, the tested form may be a part): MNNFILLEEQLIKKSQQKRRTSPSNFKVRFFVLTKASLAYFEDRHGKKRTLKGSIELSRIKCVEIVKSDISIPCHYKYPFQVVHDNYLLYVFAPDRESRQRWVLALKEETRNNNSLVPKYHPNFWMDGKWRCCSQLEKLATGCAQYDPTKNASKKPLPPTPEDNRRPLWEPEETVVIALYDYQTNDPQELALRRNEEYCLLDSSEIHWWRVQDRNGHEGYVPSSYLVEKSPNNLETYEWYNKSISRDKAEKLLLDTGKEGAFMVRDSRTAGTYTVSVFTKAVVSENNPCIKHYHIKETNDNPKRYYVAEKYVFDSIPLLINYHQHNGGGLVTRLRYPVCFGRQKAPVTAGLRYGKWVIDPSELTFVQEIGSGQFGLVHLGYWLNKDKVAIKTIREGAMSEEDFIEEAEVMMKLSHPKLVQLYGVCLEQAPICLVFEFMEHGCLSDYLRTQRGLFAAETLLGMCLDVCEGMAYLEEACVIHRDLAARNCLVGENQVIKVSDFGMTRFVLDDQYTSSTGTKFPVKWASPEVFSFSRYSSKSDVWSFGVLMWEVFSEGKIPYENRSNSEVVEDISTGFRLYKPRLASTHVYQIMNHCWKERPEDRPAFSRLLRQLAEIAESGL
Ephrin type-B receptor 3 (Homo sapiens), sequence (P54753 whole entry, the tested form may be a part): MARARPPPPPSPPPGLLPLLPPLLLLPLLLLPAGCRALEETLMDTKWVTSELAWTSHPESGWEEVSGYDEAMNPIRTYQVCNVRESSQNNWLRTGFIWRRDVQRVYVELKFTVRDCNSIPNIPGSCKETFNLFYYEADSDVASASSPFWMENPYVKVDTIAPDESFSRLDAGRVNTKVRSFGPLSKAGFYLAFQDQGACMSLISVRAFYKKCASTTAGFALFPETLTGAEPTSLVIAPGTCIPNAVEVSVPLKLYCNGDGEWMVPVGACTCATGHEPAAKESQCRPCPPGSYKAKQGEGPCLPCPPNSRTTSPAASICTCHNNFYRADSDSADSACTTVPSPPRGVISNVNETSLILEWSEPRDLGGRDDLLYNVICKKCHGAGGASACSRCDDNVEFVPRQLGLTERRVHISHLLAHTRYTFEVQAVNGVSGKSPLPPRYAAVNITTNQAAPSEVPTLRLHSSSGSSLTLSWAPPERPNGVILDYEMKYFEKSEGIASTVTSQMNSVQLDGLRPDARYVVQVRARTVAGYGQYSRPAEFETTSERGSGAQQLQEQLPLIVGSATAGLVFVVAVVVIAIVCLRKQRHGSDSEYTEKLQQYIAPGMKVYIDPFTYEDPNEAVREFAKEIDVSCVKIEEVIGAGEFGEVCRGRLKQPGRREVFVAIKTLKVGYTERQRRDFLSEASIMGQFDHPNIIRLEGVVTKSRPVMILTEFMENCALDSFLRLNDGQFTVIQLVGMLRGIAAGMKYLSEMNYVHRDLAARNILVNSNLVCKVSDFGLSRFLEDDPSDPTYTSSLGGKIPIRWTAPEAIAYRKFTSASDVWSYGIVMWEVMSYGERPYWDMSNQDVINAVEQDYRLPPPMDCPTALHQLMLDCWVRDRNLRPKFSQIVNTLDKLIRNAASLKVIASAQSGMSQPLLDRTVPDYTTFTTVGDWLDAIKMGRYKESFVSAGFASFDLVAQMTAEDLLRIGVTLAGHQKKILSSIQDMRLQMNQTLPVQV
Ribosomal protein S6 kinase alpha-2 (Homo sapiens), sequence (Q15349 whole entry, the tested form may be a part, canonical isoform): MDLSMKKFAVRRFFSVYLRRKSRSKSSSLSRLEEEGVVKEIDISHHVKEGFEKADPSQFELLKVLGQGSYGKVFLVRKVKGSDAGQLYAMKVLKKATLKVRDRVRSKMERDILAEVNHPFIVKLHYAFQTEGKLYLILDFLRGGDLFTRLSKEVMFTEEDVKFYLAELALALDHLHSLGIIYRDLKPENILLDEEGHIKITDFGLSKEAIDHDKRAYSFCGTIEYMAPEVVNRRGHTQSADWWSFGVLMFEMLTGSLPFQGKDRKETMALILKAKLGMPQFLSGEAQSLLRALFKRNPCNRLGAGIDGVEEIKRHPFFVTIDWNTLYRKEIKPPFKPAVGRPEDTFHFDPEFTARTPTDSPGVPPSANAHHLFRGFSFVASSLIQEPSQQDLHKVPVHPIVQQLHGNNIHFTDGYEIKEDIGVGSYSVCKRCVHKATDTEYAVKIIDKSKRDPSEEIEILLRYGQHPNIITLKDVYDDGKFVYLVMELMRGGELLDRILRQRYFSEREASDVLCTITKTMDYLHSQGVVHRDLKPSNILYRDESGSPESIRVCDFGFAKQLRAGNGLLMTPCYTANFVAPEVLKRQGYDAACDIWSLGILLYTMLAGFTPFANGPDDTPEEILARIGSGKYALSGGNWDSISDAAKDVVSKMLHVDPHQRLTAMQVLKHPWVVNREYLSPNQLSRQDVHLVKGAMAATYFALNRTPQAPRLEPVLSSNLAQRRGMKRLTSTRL
Ephrin type-A receptor 4 (Homo sapiens), sequence (P54764 whole entry, the tested form may be a part): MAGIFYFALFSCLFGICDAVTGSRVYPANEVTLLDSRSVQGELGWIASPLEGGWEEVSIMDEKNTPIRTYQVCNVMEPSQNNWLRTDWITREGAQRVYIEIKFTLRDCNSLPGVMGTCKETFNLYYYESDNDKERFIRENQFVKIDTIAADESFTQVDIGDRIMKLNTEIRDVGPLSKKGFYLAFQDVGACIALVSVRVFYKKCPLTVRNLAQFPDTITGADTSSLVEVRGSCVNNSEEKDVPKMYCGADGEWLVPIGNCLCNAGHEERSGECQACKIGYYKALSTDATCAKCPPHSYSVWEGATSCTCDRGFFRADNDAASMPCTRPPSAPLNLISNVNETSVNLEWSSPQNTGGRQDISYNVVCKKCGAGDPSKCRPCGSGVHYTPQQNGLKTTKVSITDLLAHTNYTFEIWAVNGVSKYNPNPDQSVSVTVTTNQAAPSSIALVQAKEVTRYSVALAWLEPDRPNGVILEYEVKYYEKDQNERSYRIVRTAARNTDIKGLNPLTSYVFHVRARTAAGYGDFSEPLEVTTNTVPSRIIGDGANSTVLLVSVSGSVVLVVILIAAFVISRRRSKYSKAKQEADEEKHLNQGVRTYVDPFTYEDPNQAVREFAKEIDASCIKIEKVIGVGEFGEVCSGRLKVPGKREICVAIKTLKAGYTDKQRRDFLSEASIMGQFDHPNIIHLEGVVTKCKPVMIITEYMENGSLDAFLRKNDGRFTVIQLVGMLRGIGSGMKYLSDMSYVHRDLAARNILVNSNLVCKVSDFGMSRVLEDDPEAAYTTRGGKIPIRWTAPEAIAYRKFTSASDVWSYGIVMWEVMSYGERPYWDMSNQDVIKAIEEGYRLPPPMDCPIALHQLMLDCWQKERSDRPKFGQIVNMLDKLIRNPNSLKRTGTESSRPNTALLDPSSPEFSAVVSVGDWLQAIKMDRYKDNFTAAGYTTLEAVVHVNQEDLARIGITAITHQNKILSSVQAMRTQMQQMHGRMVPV
Testis-specific serine/threonine-protein kinase 3 (Homo sapiens), sequence (Q96PN8 whole entry, the tested form may be a part): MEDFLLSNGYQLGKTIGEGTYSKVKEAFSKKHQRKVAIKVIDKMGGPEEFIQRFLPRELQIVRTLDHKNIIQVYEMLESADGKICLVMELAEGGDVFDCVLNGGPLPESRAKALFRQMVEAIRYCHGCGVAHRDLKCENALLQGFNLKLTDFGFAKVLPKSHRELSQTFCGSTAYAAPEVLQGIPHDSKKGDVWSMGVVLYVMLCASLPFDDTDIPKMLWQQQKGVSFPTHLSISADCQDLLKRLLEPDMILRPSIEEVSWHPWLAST

SMILES: O=C(Nc1cccc([C@@H]2CN(c3ncnc4[nH]ccc34)CCN2CCO)c1)Nc1c(F)cccc1N1CCCC1
- inhibition [1]: 100%
- inhibition [2]: 99%
- inhibition [3]: 0.8%
- inhibition [4]: 93%
- inhibition [5]: 100%
- inhibition [6]: 100%
- inhibition [7]: 55%
- inhibition [8]: 100%

SMILES: O=C(Nc1cccc([C@H]2CCCN(c3ncnc4[nH]ccc34)C2)c1)Nc1ccccc1N1CCCC1
- inhibition [9]: 42%
- inhibition [10]: 66%
- inhibition [11]: 99%
- inhibition [12]: 74%
- inhibition [13]: 100%
- inhibition [14]: 94%
- inhibition [15]: 57%
- inhibition [16]: 52%
- inhibition [17]: 100%
- inhibition [18]: 100%
- inhibition [19]: 98%
- inhibition [20]: 18%
- inhibition [21]: 85%
- inhibition [22]: 34%
- inhibition [23]: 3.5%
- inhibition [24]: 36%
- inhibition [25]: 49%
- inhibition [26]: 90%
- inhibition [27]: 100%
